Assay results: patent US10751339B2, “Substituted aminopyrimidine compounds and methods of use” (SUNSHINE LAKE PHARMA CO., LTD., priority 2018, dated 2020)

Tests used:
[1] = Compound stability in human liver microsomes; format: in vitro ADME; details: pH 7.4
In short: (§1)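 Compounds (5 μM, 0.05% DMSO) incubated in duplicate with liver microsomes (0.5 mg protein/mL) and 1.0 mM NADPH in 100 mM phosphate buffer pH 7.4 at 37 °C, sampled 0–60 min. Remaining compound measured by LC/MS/MS, expressed as percent of zero-time control; denatured-microsome and dextromethorphan controls included.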

[2] = Compound stability in rat liver microsomes; format: in vitro ADME; details: pH 7.4
In short: as §1

[3] = molecular target: PI3K (p110δ/p85α) (h) (Homo sapiens (Human), UniProt O00329); test: PI3K (p110δ/p85α) (h) non-radioactive HTRF kinase assay; format: biochemical
PI3K (p110δ/p85α) (h), sequence (O00329 whole entry, the tested form may be a part): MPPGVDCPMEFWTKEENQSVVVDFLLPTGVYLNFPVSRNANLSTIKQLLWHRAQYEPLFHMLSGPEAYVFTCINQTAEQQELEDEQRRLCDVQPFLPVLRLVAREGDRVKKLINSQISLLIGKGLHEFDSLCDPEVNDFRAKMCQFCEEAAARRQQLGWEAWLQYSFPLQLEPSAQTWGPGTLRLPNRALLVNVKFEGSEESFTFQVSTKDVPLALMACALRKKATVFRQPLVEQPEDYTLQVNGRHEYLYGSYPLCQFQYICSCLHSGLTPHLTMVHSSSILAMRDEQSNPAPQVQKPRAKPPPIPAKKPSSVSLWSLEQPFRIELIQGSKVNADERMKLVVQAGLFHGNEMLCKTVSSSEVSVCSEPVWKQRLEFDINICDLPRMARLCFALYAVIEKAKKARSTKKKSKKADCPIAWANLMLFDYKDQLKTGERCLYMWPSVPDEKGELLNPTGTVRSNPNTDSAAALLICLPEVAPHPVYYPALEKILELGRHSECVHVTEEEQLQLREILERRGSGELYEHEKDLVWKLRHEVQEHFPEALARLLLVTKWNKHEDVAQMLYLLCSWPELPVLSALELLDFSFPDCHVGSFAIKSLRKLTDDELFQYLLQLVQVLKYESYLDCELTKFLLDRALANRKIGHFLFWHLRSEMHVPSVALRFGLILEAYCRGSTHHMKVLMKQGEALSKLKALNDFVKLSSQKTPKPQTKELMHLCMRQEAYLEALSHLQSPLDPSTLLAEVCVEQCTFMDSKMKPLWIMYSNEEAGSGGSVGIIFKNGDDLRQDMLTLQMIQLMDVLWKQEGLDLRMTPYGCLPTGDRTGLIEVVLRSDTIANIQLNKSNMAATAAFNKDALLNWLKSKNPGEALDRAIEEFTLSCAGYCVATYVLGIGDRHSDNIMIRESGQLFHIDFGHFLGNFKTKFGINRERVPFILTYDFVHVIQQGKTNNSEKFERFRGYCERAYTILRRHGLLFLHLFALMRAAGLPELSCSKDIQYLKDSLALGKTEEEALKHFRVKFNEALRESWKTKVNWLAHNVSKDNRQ
PI3K (p110δ/p85α) (h), sequence (P27986 whole entry partner, the tested form may be a part): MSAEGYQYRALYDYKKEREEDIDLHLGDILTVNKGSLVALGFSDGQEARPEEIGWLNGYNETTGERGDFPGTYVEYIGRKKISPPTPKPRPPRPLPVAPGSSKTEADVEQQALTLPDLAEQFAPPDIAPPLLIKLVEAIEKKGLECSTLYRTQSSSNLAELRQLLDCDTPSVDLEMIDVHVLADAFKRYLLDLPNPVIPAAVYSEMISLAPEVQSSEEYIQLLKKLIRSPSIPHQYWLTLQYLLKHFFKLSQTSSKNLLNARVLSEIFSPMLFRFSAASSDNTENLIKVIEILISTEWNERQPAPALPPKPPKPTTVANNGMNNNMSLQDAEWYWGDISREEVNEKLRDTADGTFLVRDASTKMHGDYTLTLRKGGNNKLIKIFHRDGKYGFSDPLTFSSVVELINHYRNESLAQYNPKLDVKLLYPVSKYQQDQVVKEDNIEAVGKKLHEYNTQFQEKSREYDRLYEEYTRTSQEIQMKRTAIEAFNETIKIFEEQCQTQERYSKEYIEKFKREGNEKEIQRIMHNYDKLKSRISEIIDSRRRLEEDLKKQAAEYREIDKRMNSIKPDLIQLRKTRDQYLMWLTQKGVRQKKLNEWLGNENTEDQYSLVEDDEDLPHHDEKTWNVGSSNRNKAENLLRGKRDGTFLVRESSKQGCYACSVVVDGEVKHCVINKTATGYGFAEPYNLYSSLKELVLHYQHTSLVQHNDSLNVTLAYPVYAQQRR
Procedure: (§2) PI3K (p110δ/p85α) (h) is incubated in assay buffer containing 10 μM phosphatidylinositol-4, 5-bisphosphate and MgATP (concentration as required). The reaction is initiated by the addition of the MgATP mix. After incubation for 30 minutes at room temperature, the reaction is stopped by the addition of stop solution containing EDTA and biotinylated phosphatidylinositol-3,4,5-trisphosphate. Finally, detection buffer is added, which contains europium-labelled anti-GST monoclonal antibody, GST-tagged GRP1 PH domain and streptavidin-allophycocyanin. The plate is then read in timeresolved fluorescence mode and the homogenous time-resolved fluorescence (HTRF) signal is determined according to the formula HTRF=10000×(Em665 nm/Em620 nm).
(§3) The kinase assays described herein were performed at Millipore UK Ltd, Dundee Technology Park, Dundee DD2 1SW, UK.

[4] = molecular target: PI3K (p120γ) (h) (Homo sapiens (Human), UniProt P48736); test: PI3K (p120γ) (h) non-radioactive HTRF kinase assay; format: biochemical
PI3K (p120γ) (h), sequence (P48736 whole entry): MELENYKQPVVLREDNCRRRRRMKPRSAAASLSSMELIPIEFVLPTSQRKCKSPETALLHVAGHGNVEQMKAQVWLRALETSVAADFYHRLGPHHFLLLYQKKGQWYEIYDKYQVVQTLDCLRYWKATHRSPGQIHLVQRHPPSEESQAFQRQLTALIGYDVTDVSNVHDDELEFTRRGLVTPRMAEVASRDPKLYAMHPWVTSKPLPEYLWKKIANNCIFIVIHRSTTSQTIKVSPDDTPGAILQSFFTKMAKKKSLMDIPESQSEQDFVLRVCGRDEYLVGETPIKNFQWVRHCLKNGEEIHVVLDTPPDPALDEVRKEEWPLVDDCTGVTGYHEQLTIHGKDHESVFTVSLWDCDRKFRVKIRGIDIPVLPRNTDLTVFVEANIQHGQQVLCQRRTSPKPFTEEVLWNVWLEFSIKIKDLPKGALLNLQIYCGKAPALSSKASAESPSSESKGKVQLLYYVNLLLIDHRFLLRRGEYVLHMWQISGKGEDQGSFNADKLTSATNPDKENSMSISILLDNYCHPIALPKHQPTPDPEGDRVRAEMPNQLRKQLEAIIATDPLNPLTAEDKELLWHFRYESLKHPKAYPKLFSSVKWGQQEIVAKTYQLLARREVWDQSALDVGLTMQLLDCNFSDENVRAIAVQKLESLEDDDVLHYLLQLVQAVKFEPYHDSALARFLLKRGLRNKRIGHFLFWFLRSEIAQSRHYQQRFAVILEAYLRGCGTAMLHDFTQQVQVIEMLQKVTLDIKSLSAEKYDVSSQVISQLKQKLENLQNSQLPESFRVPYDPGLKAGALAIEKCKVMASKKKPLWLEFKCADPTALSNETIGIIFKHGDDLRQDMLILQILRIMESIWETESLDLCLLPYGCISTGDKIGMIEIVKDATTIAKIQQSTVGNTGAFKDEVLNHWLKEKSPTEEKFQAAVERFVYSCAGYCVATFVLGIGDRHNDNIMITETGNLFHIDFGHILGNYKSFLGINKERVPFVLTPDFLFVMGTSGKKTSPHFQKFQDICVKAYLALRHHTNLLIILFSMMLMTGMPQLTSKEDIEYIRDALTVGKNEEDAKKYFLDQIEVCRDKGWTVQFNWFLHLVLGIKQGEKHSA
Procedure: as §2, with “(p120γ)” for “(p110δ/p85α)”
as §3

[5] = system: PI3K-α (SKOV3); test: p-AKT HTRF assay, PI3K-α in SKOV3 cells; format: cell-based; details: Homo sapiens, SK-OV-3
Procedure: (§4) Cells were incubated at 37° C. in a 5% CO2 atmosphere overnight. […] Medium was then aspirated and 50 μL/well of lysis buffer was added. Plates were shaked for 45 minutes at room temperature and then 16 ul/well of lysate was transferred to 384-well plate. 4 ul/well of premixed antibody was added to the wells. The plate was centrifuged at 1000 rpm at RT for 1 minute and then incubated for 4 hours at 22° C., and Phospho-AKT (ser473) Kit was used for detection.

[6] = system: PI3K-δ (RAJI); test: p-AKT HTRF assay, PI3K-δ in RAJI cells stimulated with anti-IgM; format: cell-based; details: anti-human IgM stimulation
Procedure: as §4

[7] = system: WSU-NHL; test: Cell proliferation assay (CTG), WSU-NHL; format: cell-based; details: Homo sapiens, 72 h
Procedure: • 1. Harvest cells during the logarithmic growth period and count cell number using Count-star. • 2. Adjust cell concentrations to […] with respective culture medium. • 3. Add 90 μL cell suspensions to 96-well plates with the final cell density of 1×10^4 cells/well. (cell concentration will be adjusted according to the data base or density optimization assay.) • 4. The next day, prepare 10× solution (Top working concentration: 10 μM of test article in media with 3.16-fold serial dilutions to achieve 9 dose levels). • 5. Dispense 10 μL drug solution of both test article and reference control in each well (duplicate for each drug concentration) of the plate.

[8] = molecular target: hERG channels (Homo sapiens (Human), UniProt Q12809); test: hERG assay, manual patch-clamp in HEK-293 cells; format: cell-based
hERG channels, sequence (Q12809 whole entry): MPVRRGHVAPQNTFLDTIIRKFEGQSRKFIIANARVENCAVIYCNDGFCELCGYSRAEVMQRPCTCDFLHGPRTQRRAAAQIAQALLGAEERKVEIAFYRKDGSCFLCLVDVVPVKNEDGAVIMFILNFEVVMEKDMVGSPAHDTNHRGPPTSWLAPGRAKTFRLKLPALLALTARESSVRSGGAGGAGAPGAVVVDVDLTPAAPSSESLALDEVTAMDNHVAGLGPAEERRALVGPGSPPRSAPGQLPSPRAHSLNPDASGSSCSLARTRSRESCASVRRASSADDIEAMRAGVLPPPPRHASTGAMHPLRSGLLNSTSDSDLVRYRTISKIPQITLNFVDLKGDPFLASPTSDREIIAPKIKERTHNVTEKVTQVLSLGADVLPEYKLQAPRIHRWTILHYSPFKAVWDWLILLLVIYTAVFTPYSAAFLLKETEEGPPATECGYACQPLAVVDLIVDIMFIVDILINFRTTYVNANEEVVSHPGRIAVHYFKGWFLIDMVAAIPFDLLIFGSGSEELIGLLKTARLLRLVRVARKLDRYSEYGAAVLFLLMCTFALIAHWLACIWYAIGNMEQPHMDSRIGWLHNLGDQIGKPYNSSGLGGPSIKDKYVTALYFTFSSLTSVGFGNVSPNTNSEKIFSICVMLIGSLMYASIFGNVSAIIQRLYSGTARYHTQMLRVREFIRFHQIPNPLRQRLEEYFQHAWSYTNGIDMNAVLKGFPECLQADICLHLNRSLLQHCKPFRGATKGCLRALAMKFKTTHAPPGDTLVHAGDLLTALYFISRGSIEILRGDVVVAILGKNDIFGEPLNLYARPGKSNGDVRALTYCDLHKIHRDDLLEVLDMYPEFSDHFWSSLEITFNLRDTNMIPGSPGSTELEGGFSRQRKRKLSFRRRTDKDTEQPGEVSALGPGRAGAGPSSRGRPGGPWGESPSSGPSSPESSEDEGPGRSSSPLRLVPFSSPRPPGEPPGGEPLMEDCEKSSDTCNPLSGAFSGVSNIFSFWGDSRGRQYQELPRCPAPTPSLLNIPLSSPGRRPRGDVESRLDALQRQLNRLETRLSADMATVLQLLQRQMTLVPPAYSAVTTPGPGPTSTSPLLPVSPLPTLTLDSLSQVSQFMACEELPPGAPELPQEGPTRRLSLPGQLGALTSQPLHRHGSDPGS
Description: Voltage clamp protocol: Computer software was used to set voltage clamp protocols. In whole-cell model, cells were held at −80 mV, first depolarized to −50 mV for 80 ms, and then depolarized to +20 mV for 4800 ms to activate the hERG channels. After that the cells were repolarized to −50 mV for 5000 ms to elicit the characteristic tail currents. Finally the cells were held at −80 mV again. The peak values of tail currents were sampled for analysis.
Manual patch-clamp protocol: The manual patch-clamp system was used to record the hERG currents in human embryonic kidney (HEK-293) cells. The cells were harvested and transferred to the recording charmer on the stage of an inverted microscope and perfused consistently with extracellular solution. The volume of the recording chamber was about 1 mL. The extracellular solution in the chamber was completely exchanged within 1 min at a perfusion rate about 1 mL/min. Patch micropipettes were pulled with micropipette puller. Pipettes were moved to the cells by Micromanipulator and a slight positive pressure was used to clear the surface before seal formation. A high-resistance seal between the surface of the plasma membrane and the tip of pipettes were achieved by a gentle suck. […]
Data was presented as mean±S.E.M. The effects of test article were normalized with the peak currents recorded in vehicle control. […]

CLint scaled at 5 μM ([1]; liver microsomes, in vivo CLint extrapolated from human liver microsome incubation): 36.9 mL/min/kg
half-life at 5 μM ([1]; human liver microsomes 0.5 mg protein/mL, compound 5 μM, NADPH, 37° C., read-out: Human T1/2): 0.786 h
CLint scaled at 5 μM ([2]; liver microsomes, in vivo CLint extrapolated from rat liver microsome incubation): 31 mL/min/kg
half-life at 5 μM ([2]; rat liver microsomes 0.5 mg protein/mL, compound 5 μM, NADPH, 37° C., read-out: Rat T1/2): 1.34 h
IC50 [3]: 4 nM
IC50 [4]: 192 nM
IC50 [5]: 2600 nM
IC50 [6]: 0.65 nM
SMILES: Cc1noc(-c2c(N)ncnc2N[C@@H](C)c2nc3cccc(C#CCO)c3c(=O)n2-c2ccccc2)n1 [Example 34, (S)-2-(1-((6-amino-5-(3-methyl-1,2,4-oxadiazol-5-yl)pyrimidin-4-yl)amino)ethyl)-5-(3-hydroxyprop-1-yn-1-yl)-3-phenylquinazolin-4(3H)-one]
IC50 [7]: 49 nM
IC50 [8]: 15300 nM
